The structures appear in SMILES notation. Structures can show the parent of a compound that is named as a salt.

Here are results for 18 compounds from patent publication US20250134890A1, “ANTIMALARIAL HEXAHYDROPYRIMIDINE ANALOGUES” (UCB BIOPHARMA SRL, priority 2022, published 2025).

The first assay has as its system Plasmodium falciparum: 3D7 strain. The experiment in a line: P. falciparum 3D7 asexual blood stage assay (SYBR green readout). Particulars: Plasmodium falciparum, 3D7, Erythrocyte, 72 h, P. falciparum 3D7 in human erythrocytes, 72 h incubation, SYBR green fluorescence. It counts as cell-based. The source says:
The compounds of the present invention are potent inhibitors of the growth and propagation of the Plasmodium falciparum parasite in human blood.
The assay used to measure the effect of test compounds on a bloodstream stage of Plasmodium falciparum: 3D7 strain employs SYBR green as the readout. This is a dye that binds to double stranded deoxyribonucleic acid (DNA) with a resulting increase in fluorescence, allowing detection of P. falciparum DNA in infected erythrocytes, and thereby providing a measure of parasite growth and propagation.
Erythrocytes (A+blood) were prepared for both parasite culture and assay by washing 4 times with incomplete media (15.9 g RPMI 1640 (25 mM HEPES, L-glutamine), 1 g NaHCO3, 2 g glucose, 400 μL gentacin (500 mg/mL), 2 mL hypoxanthine solution (13.6 g/L in 0.1M NaOH pH 7.3) in 1 litre of media). The cells were centrifuged at 1800 g for 5 minutes, before decanting the supernatant and re-suspending in fresh incomplete media. On the final wash, the cells were re-suspended in complete media (incomplete media with 5 g/L AlbumaxII), and centrifuged at 1800 g for 3 minutes. This cell sediment was treated as 100% haematocrit.
P. falciparum 3D7 was cultured in erythrocytes at 5% haematocrit in complete media at 37° C. (1% O2, 3% CO2, balance N2). Cultures were split on a weekly basis to achieve a 1% parasitaemia in erythrocites at 5% haematocrit in fresh media. Culture media is replaced by fresh media every other day (2 times during the week).
On day 1, test compounds were added to assay plates using Echo dispensing technology ([…] and 20 points titration). 50 nL of each compound dilution was added to 50 μL of culture (5% haematocrit, 0.5% parasitaemia) and incubated for 72 h at 37° C. (1% O2, 3% CO2, balance N2). Final concentrations of test compounds ranged from 50,000 nM to 15 nM, in […].
On day 4, 10 μL SYBR green (Invitrogen S7563 supplied as 10,000×concentrate in DMSO) pre-diluted to 3×concentrate with Lysis buffer (20 mM Tris pH 7.9, 5% EDTA, 0.16% w/v, 1.6% TX100 v/v) was added to the cultures and incubated in the dark, overnight, at room temperature.
On day 5, fluorescent signal was measured using a BioTek plate reader (excitation 485 nm, emission 528 nm). All data were processed using IDBS ActivityBase. Raw data were converted into percent inhibition through linear regression by setting the high inhibition control (mefloquine) as 100% and the no inhibition control (DMSO) as 0%. Quality control criteria for passing plates were as follows: Z′>0.5, S:B>3, % CV(no inhibition control)<15. The formula used to calculate Z′ is: […]
All EC50 curve fitting was undertaken using the following bi-phasic two site dose response using XLfit model 300 (IDBS):
where A=100 minus the top of the upper curve 1 and the bottom of lower curve; B=Hill slope; log(C)=IC50 concentration at lower site; log(D)=IC50 concentration at upper site; x=inhibitor concentration; and y=% inhibition.
`C[C@@H]1C[C@H](N2C(=N)N[C@](C)(c3cccc(-c4cccc(Cl)c4)c3Cl)CC2=O)CC[C@@H]1O` (relative stereo) [Example 7, (6S)-6-[2-Chloro-3-(3-chloro-phenyl)phenyl]-3-[(1R*,3R*,4S*)-4-hydroxy-3-methylcyclohexyl]-2-imino-6-methylhexahydro-pyrimidin-4-one hydrochloride]: half-maximal inhibition (IC50) required 720 nM.
Same read-out and setting: with `C[C@H]1C[C@@H](N2C(=N)N[C@](C)(c3cccc(-c4cccc(Cl)c4)c3Cl)CC2=O)CC[C@H]1O` (relative stereo) [Example 8, (6S)-6-[2-Chloro-3-(3-chloro-phenyl)phenyl]-3-[(1S*,3S*,4R*)-4-hydroxy-3-methylcyclohexyl]-2-imino-6-methylhexahydro-pyrimidin-4-one hydrochloride] the figure was 247 nM.
Still for that read-out and setting: the figure for `CO[C@@H]1C[C@H](N2C(=N)N[C@](C)(c3cccc(-c4ccc(S(C)(=O)=O)cc4F)c3Cl)CC2=O)CCC1(F)F` (relative stereo) [Example 9, (6S)-6-{2-Chloro-3-[2-fluoro-4-(methylsulfonyl)phenyl]phenyl}-3-[(1R*,3R*)-4,4-difluoro-3-methoxycyclohexyl]-2-imino-6-methylhexahydropyrimidin-4-one hydrochloride] is 84 nM; for `CO[C@H]1C[C@@H](N2C(=N)N[C@](C)(c3cccc(-c4ccc(S(C)(=O)=O)cc4F)c3Cl)CC2=O)CCC1(F)F` (relative stereo) [Example 10, (6S)-6-{2-Chloro-3-[2-fluoro-4-(methylsulfonyl)phenyl]phenyl}-3-[(1S*,3S*)-4,4-difluoro-3-methoxy-cyclohexyl]-2-imino-6-methyl-hexahydropyrimidin-4-one hydrochloride] it is 6 nM; for `CO[C@@H]1C[C@H](N2C(=N)N[C@](C)(c3cccc(-c4ccc(N=S(C)(C)=O)cc4F)c3Cl)CC2=O)CCC1(F)F` (relative stereo) [Example 11, (6S)-6-[2-Chloro-3-(4-{[(dimethyl)-(oxo)-λ^6-sulfanylidene]amino}-2-fluorophenyl)phenyl]-3-[(1R*,3R*)-4,4-difluoro-3-methoxycyclohexyl]-2-imino-6-methylhexahydropyrimidin-4-one hydrochloride] it is 367 nM.
Still for that read-out and setting: with `CO[C@H]1C[C@@H](N2C(=N)N[C@](C)(c3cccc(-c4ccc(N=S(C)(C)=O)cc4F)c3Cl)CC2=O)CCC1(F)F` (relative stereo) [Example 12, (6S)-6-[2-Chloro-3-(4-{[(dimethyl)-(oxo)-λ^6-sulfanylidene]amino}-2-fluorophenyl)phenyl]-3-[(1S*,3S*)-4,4-difluoro-3-methoxy-cyclohexyl]-2-imino-6-methyl-hexahydropyrimidin-4-one hydrochloride] the figure was 359 nM; with `C[C@@]1(c2cccc(-c3cccc(Cl)c3)c2Cl)CC(=O)N([C@H]2CCC(F)(F)[C@@H](O)C2)C(=N)N1` (relative stereo) [Example 21, (S)-6-[2,3′-Dichloro(1,1′-biphenyl)-3-yl]-3-[(1S*,3S*)-4,4-difluoro-3-hydroxycyclohexyl]-2-imino-6-methyltetrahydropyrimidin-4(1H)-one trifluoroacetic acid salt], 726 nM; with `C[C@@]1(c2cccc(-c3cccc(Cl)c3)c2Cl)CC(=O)N([C@@H]2CCC(F)(F)[C@H](O)C2)C(=N)N1` (relative stereo) [Example 22, (S)-6-[2,3′-Dichloro(1,1′-biphenyl)-3-yl]-3-[(1R*,3R*)-4,4-difluoro-3-hydroxycyclohexyl]-2-imino-6-methyltetrahydropyrimidin-4(1H)-one trifluoroacetic acid salt], 154 nM.
With `C[C@@]1(c2cccc(-c3cncc(Cl)c3)c2Cl)CC(=O)N([C@@H]2CCC(F)(F)[C@H](O)C2)C(=N)N1` (relative stereo) [Example 23, (6S)-6-[2-Chloro-3-(5-chloro-pyridin-3-yl)phenyl]-3-[(1R*,3R*)-4,4-difluoro-3-hydroxycyclohexyl]-2-imino-6-methylhexahydro-pyrimidin-4-one hydrochloride], the IC50 (as a rule, the concentration needed to halve the response being measured) worked out at 158 nM.
Still for that read-out and setting: the figure for `C[C@@]1(c2cccc(-c3cccc(Cl)c3)c2Cl)CC(=O)N([C@@H]2CCC(F)(F)[C@@H](O)C2)C(=N)N1` (relative stereo) [Example 24, (6S)-6-[2-Chloro-3-(3-chloro-phenyl)phenyl]-3-[(1R*,3S*)-4,4-difluoro-3-hydroxycyclohexyl]-2-imino-6-methylhexahydro-pyrimidin-4-one trifluoroacetic acid salt] is 112 nM; for `C[C@@H]1C[C@H](N2C(=N)N[C@](C)(c3cccc(-c4ccc(F)cc4F)c3Cl)CC2=O)CCS1(=O)=O` (relative stereo) [Example 63, (6S)-6-[2-Chloro-3-(2,4-difluoro-phenyl)phenyl]-2-imino-6-methyl-3-[(2R*,4R*)-2-methyl-1,1-dioxo-thian-4-yl]hexahydropyrimidin-4-one hydrochloride] it is 74 nM; for `C[C@H]1C[C@@H](N2C(=N)N[C@](C)(c3cccc(-c4ccc(F)cc4F)c3Cl)CC2=O)CCS1(=O)=O` (relative stereo) [Example 64, (6S)-6-[2-Chloro-3-(2,4-difluoro-phenyl)phenyl]-2-imino-6-methyl-3-[(2S*,4S*)-2-methyl-1,1-dioxo-thian-4-yl]hexahydropyrimidin-4-one hydrochloride] it is 207 nM.
As to `C[C@H]1C[C@H](N2C(=N)N[C@](C)(c3cccc(-c4ccc(F)cc4F)c3Cl)CC2=O)CCS1(=O)=O` (relative stereo) [Example 65, (6S)-6-[2-Chloro-3-(2,4-difluoro-phenyl)phenyl]-2-imino-6-methyl-3-[(2S*,4R*)-2-methyl-1,1-dioxo-thian-4-yl]hexahydropyrimidin-4-one hydrochloride], the half-maximal inhibitory concentration (IC50) turned out to be 1300 nM.
The same measure, in the same setting: with `C[C@@H]1C[C@@H](N2C(=N)N[C@](C)(c3cccc(-c4ccc(F)cc4F)c3Cl)CC2=O)CCS1(=O)=O` (relative stereo) [Example 66, (6S)-6-[2-Chloro-3-(2,4-difluoro-phenyl)phenyl]-2-imino-6-methyl-3-[(2R*,4S*)-2-methyl-1,1-dioxo-thian-4-yl]hexahydropyrimidin-4-one hydrochloride] the figure was 272 nM; with `C[C@H]1C[C@@H](N2C(=N)N[C@](C)(c3cccc(-c4ccc(C5CC5)nc4)c3Cl)CC2=O)CCS1(=O)=O` (relative stereo) [Example 67, (6S)-6-[2-Chloro-3-(6-cyclopropyl-pyridin-3-yl)phenyl]-2-imino-6-methyl-3-[(2S*,4S*)-2-methyl-1,1-dioxothian-4-yl]hexahydro-pyrimidin-4-one hydrochloride], 88 nM; with `C[C@@H]1C[C@@H](N2C(=N)N[C@](C)(c3cccc(-c4ccc(C5CC5)nc4)c3Cl)CC2=O)CCS1(=O)=O` (relative stereo) [Example 68, (6S)-6-[2-Chloro-3-(6-cyclopropyl-pyridin-3-yl)phenyl]-2-imino-6-methyl-3-[(2R*,4S*)-2-methyl-1,1-dioxothian-4-yl]hexahydro-pyrimidin-4-one hydrochloride], 1140 nM.
Same read-out and setting: with `C[C@H]1C[C@H](N2C(=N)N[C@](C)(c3cccc(-c4ccc(C5CC5)nc4)c3Cl)CC2=O)CCS1(=O)=O` (relative stereo) [Example 69, (6S)-6-[2-Chloro-3-(6-cyclopropyl-pyridin-3-yl)phenyl]-2-imino-6-methyl-3-[(2S*,4R*)-2-methyl-1,1-dioxothian-4-yl]hexahydro-pyrimidin-4-one hydrochloride] the figure was 260 nM.

Staying with this assay, now noted: Plasmodium falciparum, Erythrocyte; P. falciparum 3D7 in human erythrocytes, 72 h incubation, SYBR green fluorescence; read-out: IC50.
Regarding `C[C@H]1C[C@@H](N2C(=N)N[C@](C)(c3cccc(-c4cccc([C@@H](O)C(F)(F)F)c4)c3Cl)CC2=O)CCO1` (relative stereo) [Example 27, (6S)-6-(2-Chloro-3-{3-[(1R*)-2,2,2-trifluoro-1-hydroxyethyl]-phenyl}phenyl)-2-imino-6-methyl-3-[(2S,4S)-2-methyltetrahydro-pyran-4-yl|hexahydropyrimidin-4-one hydrochloride], the IC50 was determined as 44 nM.
